Assay results published in patent US20050130252A1, “Stabilized susceptibility tests of aerobic pathogens” (Wyeth Holdings Corporation, priority 2003, published 2005).

How the values were obtained:
[1] = system: Staphylococcus aureus GC1079 tet(K); experiment: Agar dilution in vitro activity; assay type: cell-based; conditions: S. aureus GC1079 tet(K)
Description: (§1) The in vitro activities of tigecycline and control antibiotics were determined by the broth microdilution method as recommended by the NCCLS. (National Committee for Clinical Laboratory Standards, 2003. Methods for Dilution Antimicrobial Susceptibility Tests for Bacteria That Grow Aerobically; Approved Standards: M7-A6, Sixth ed, vol. 23., National Committee for Clinical Laboratory Standards Wayne, Pa.) was used for the standard procedures. MBH with 5% lysed horse blood was used for testing S. pneumoniae and Haemophilus Test Medium was used for testing H. influenzae. Oxyrase® (Oxyrase Inc, Mansfield, Ohio) was used according to the manufacturer's instructions by adding 1 ml of Oxyrase® to 50 ml of media. Media age studies were performed by preparing MHB in multiple flasks, then storing the media under various conditions. MICs were usually performed in duplicate on each day of testing. Storage under anaerobic conditions was conducted in an anaerobic chamber (MACS MG 1000, Don Whitley Scientific LTD). The pH of the media was determined by pH meter (Corning 430). A comparison of the in vitro activity of tigecycline by agar and broth dilution methodolgies with and without Oxyrase® against clinical isolates is shown in Table 1.

[2] = system: clinical isolates and strains expressing various tetracycline resistance determinants; experiment: Broth microdilution MIC, panel of clinical isolates and tetracycline-resistant strains taken together; assay type: cell-based; conditions: Table 5 panel
Description: as §1, with “1. […]” for “1.”

[3] = system: Escherichia coli GC1073 tet(B) wt; experiment: Agar dilution in vitro activity; assay type: cell-based; conditions: E. coli GC1073 tet(B) wt
Description: as §1, with “Oxyrase® (Oxyrase Inc, Mansfield, Ohio) was used according to the manufacturer's instructions by adding 1 ml of Oxyrase® to 50 ml of media.” left out

[4] = system: Staphylococcus aureus GC6467 Clinical - tet(M) + (K); experiment: Agar dilution in vitro activity; assay type: cell-based; conditions: S. aureus GC6467 tet(M) + (K)
Description: as §1, with “Oxyrase® (Oxyrase Inc, Mansfield, Ohio) was used according to the manufacturer's instructions by adding 1 ml of Oxyrase® to 50 ml of media.” left out

[5] = system: Enterococcus faecalis GC2242 Vancomycin-Resistant; experiment: Agar dilution in vitro activity; assay type: cell-based; conditions: E. faecalis GC2242 Vancomycin-Resistant
Description: as §1, with “Oxyrase® (Oxyrase Inc, Mansfield, Ohio) was used according to the manufacturer's instructions by adding 1 ml of Oxyrase® to 50 ml of media.” left out

[6] = system: Escherichia coli GC4560 IMP mutant; experiment: Agar dilution in vitro activity; assay type: cell-based; conditions: E. coli GC4560 IMP mutant
Description: as §1, with “Oxyrase® (Oxyrase Inc, Mansfield, Ohio) was used according to the manufacturer's instructions by adding 1 ml of Oxyrase® to 50 ml of media.” left out

[7] = system: Escherichia coli GC4559 parent GC4560; experiment: Agar dilution in vitro activity; assay type: cell-based; conditions: E. coli GC4559
Description: as §1, with “Oxyrase® (Oxyrase Inc, Mansfield, Ohio) was used according to the manufacturer's instructions by adding 1 ml of Oxyrase® to 50 ml of media.” left out

[8] = system: Candida albicans GC3066 ATCC Control; experiment: Agar dilution in vitro activity; assay type: cell-based; conditions: C. albicans GC3066 ATCC Control
Description: as §1, with “Oxyrase® (Oxyrase Inc, Mansfield, Ohio) was used according to the manufacturer's instructions by adding 1 ml of Oxyrase® to 50 ml of media.” left out

[9] = system: Staphylococcus aureus GC2216 ATCC Control; experiment: Agar dilution in vitro activity; assay type: cell-based; conditions: S. aureus GC2216 ATCC Control
Description: as §1, with “Oxyrase® (Oxyrase Inc, Mansfield, Ohio) was used according to the manufacturer's instructions by adding 1 ml of Oxyrase® to 50 ml of media.” left out

[10] = system: Escherichia coli GC2270 tet(M); experiment: Agar dilution in vitro activity; assay type: cell-based; conditions: E. coli GC2270 tet(M)
Description: as §1, with “Oxyrase® (Oxyrase Inc, Mansfield, Ohio) was used according to the manufacturer's instructions by adding 1 ml of Oxyrase® to 50 ml of media.” left out

[11] = system: Staphylococcus aureus GC6466 Clinical - tet(M); experiment: Agar dilution in vitro activity; assay type: cell-based; conditions: S. aureus GC6466 tet(M)
Description: as §1, with “Oxyrase® (Oxyrase Inc, Mansfield, Ohio) was used according to the manufacturer's instructions by adding 1 ml of Oxyrase® to 50 ml of media.” left out

[12] = system: Staphylococcus aureus GC1131 Clinical isolate; experiment: Agar dilution in vitro activity; assay type: cell-based; conditions: S. aureus GC1131
Description: as §1, with “Oxyrase® (Oxyrase Inc, Mansfield, Ohio) was used according to the manufacturer's instructions by adding 1 ml of Oxyrase® to 50 ml of media.” left out

[13] = system: Escherichia coli GC2203 ATCC Control; experiment: Agar dilution in vitro activity; assay type: cell-based; conditions: E. coli GC2203 ATCC Control
Description: as §1, with “Oxyrase® (Oxyrase Inc, Mansfield, Ohio) was used according to the manufacturer's instructions by adding 1 ml of Oxyrase® to 50 ml of media.” left out

[14] = HPLC analysis of early peak formation of tigecycline in water and MHB; assay type: physicochemical; conditions: stored overnight at RT
Description: To test the hypothesis, solutions of tigecycline were prepared in water, fresh MHB and aged MHB. The solutions were stored overnight at RT, then subjected to HPLC analysis to look for degradation of tigecycline. […] This confirmed that the formation of early peak of tigecycline was accelerated in the aged media.
In experiment 1 three experimental test samples were examined for early peak formation of tigecycline. In experiment 2 six experimental test samples were evaluated to determine the early peak of tigecycline which occurs in 24 hours. Results are as listed below:
Tigecycline at a concentration of 1 mg/mL in each of the above vehicles was prepared, assayed at time zero and 1 day @ RT.
The HPLC parameters are listed below: • HPLC column: Luna C18(2), 5 μm, 4.6×150 mm • Detection: UV @ 250 nm • Flow Rate: 1.5 mL/min • Injection volume=30 μL • Mobile Phase A: 6.8 g KH2PO4 in 950 mL water, pH to 6.2 with KOH, mixed with 50 mL acetonitrile • Mobile Phase B: 6.8 g KH2PO4 in 500 mL water, pH to 6.2 with KOH, mixed with 500 mL acetonitrile

## CN(C)c1cc(NC(=O)CNC(C)(C)C)c(O)c2c1C[C@H]1C[C@H]3[C@H](N(C)C)C(O)=C(C(N)=O)C(=O)[C@@]3(O)C(O)=C1C2=O [Tigecycline, tigecycline]
[1]; Oxyrase (10%)
  In Vitro Activity of Tigecycline: 0.25
[1]; no Oxyrase
  In Vitro Activity of Tigecycline: 0.5
[2]
  MICs in fresh media lower than in aged media: 1 to 3 dilutions
[3]; Oxyrase (10%)
  In Vitro Activity of Tigecycline: 0.25
[3]; no Oxyrase
  In Vitro Activity of Tigecycline: 0.25
[4]; Oxyrase (10%)
  In Vitro Activity of Tigecycline: 0.5
[4]; no Oxyrase
  In Vitro Activity of Tigecycline: 1
[5]; Oxyrase (10%)
  In Vitro Activity of Tigecycline: 0.12
[5]; no Oxyrase
  In Vitro Activity of Tigecycline: 0.12
[6]; Oxyrase (10%)
  In Vitro Activity of Tigecycline: 0.03
[6]; no Oxyrase
  In Vitro Activity of Tigecycline: 0.03
[7]; Oxyrase (10%)
  In Vitro Activity of Tigecycline: 0.12
[7]; no Oxyrase
  In Vitro Activity of Tigecycline: 0.25
[8]; Oxyrase (10%)
  In Vitro Activity of Tigecycline: >16
[8]; no Oxyrase
  In Vitro Activity of Tigecycline: >16
[9]; Oxyrase (10%)
  In Vitro Activity of Tigecycline: 0.25
[9]; no Oxyrase
  In Vitro Activity of Tigecycline: 0.5
[10]; Oxyrase (10%)
  In Vitro Activity of Tigecycline: 0.12
[10]; no Oxyrase
  In Vitro Activity of Tigecycline: 0.25
[11]; Oxyrase (10%)
  In Vitro Activity of Tigecycline: 0.12
[11]; no Oxyrase
  In Vitro Activity of Tigecycline: 0.25
[12]; Oxyrase (10%)
  In Vitro Activity of Tigecycline: 0.25
[12]; no Oxyrase
  In Vitro Activity of Tigecycline: 0.25
[13]; Oxyrase (10%)
  In Vitro Activity of Tigecycline: 0.12
[13]; no Oxyrase
  In Vitro Activity of Tigecycline: 0.25
[14]; tigecycline solution in aged MHB
  Amount of the early peak (HPLC) relative to the amount in water (ratio): about 35
[14]; tigecycline solution in fresh MHB
  Amount of the early peak (HPLC) relative to the amount in water: about 12 times
